Reference: ChEMBL document CHEMBL3046819, “Synthesis and antimicrobial activity of new pyridine derivatives-I” (2011)

Tests used:
Type in all cases: functional
Conditions in all cases: read-out: IZ
Candida albicans [1] = experiment: Antifungal activity against Candida albicans ATCC 10231 at 200 ug/ml by cup-plate method
Candida albicans [2] = experiment: Antifungal activity against Candida albicans ATCC 10231 at 100 ug/ml by cup-plate method
Bacillus subtilis [3] = experiment: Antibacterial activity against Bacillus subtilis ATCC 6633 at 200 ug/ml by cup-plate method
Bacillus subtilis [4] = experiment: Antibacterial activity against Bacillus subtilis ATCC 6633 at 100 ug/ml by cup-plate method
Staphylococcus aureus [5] = experiment: Antibacterial activity against Staphylococcus aureus ATCC 9144 at 200 ug/ml by cup-plate method
Staphylococcus aureus [6] = experiment: Antibacterial activity against Staphylococcus aureus ATCC 9144 at 100 ug/ml by cup-plate method
Escherichia coli [7] = experiment: Antibacterial activity against Escherichia coli ATCC 25922 at 200 ug/ml by cup-plate method
Escherichia coli [8] = experiment: Antibacterial activity against Escherichia coli ATCC 25922 at 100 ug/ml by cup-plate method
Pseudomonas aeruginosa [9] = experiment: Antibacterial activity against Pseudomonas aeruginosa ATCC 9027 at 200 ug/ml by cup-plate method
Pseudomonas aeruginosa [10] = experiment: Antibacterial activity against Pseudomonas aeruginosa ATCC 9027 at 100 ug/ml by cup-plate method

Row | SMILES | zone of inhibition at 200 µg/mL (Candida albicans [1]) [mm] | zone of inhibition at 100 µg/mL (Candida albicans [2]) [mm] | zone of inhibition at 200 µg/mL (Bacillus subtilis [3]) [mm] | zone of inhibition at 100 µg/mL (Bacillus subtilis [4]) [mm] | zone of inhibition at 200 µg/mL (Staphylococcus aureus [5]) [mm] | zone of inhibition at 100 µg/mL (Staphylococcus aureus [6]) [mm] | zone of inhibition at 200 µg/mL (Escherichia coli [7]) [mm] | zone of inhibition at 100 µg/mL (Escherichia coli [8]) [mm] | zone of inhibition at 200 µg/mL (Pseudomonas aeruginosa [9]) [mm] | zone of inhibition at 100 µg/mL (Pseudomonas aeruginosa [10]) [mm]
1 | O=C(c1cccnc1Nc1nc2c([N+](=O)[O-])cccc2s1)N1CCNC(Cl)C1Cl (stereo not given) | 4 | 2 | 10 | 5 | 10 | 8 | 10 | 9 | 9 | 8
2 | Cc1ccc2sc(Nc3ncccc3C(=O)N3CCN(CCO)CC3)nc2c1 | 2 | 1 | 8 | 8 | 10 | 8 | 10 | 6 | 6 | 5
3 | Cc1ccc2nc(Nc3ncccc3C(=O)N3CCN(CCO)CC3)sc2c1 | 5 | 2 | 0 | 0 | 3 | 0 | 6 | 0 | 0 | 0
4 | COc1cccc2sc(Nc3ncccc3C(=O)N3CCN(CCO)CC3)nc12 | 4 | 4 | 10 | 6 | 8 | 6 | 3 | 3 | 9 | 7
5 | COc1ccc2nc(Nc3ncccc3C(=O)N3CCN(CCO)CC3)sc2c1 | 5 | 0 | 4 | 0 | 9 | 8 | 8 | 8 | 5 | 4
6 | O=C(c1cccnc1Nc1nc2ccccc2s1)N1CCNC(Cl)C1Cl (stereo not given) | 5 | 3 | 7 | 6 | 7 | 5 | 8 | 7 | 5 | 4
7 | O=C(c1cccnc1Nc1nc2cc([N+](=O)[O-])ccc2s1)N1CCNC(Cl)C1Cl (stereo not given) | 4 | 1 | 7 | 8 | 9 | 6 | 5 | 4 | 6 | 5
8 | O=C(c1cccnc1Nc1nc2ccc([N+](=O)[O-])cc2s1)N1CCNC(Cl)C1Cl (stereo not given) | 3 | 0 | 7 | 7 | 8 | 8 | 6 | 6 | 8 | 6
9 | O=C(c1cccnc1Nc1nc2c(Cl)cccc2s1)N1CCNC(Cl)C1Cl (stereo not given) | 6 | 3 | 6 | 3 | 4 | 3 | 5 | 4 | 3 | 3
10 | O=C(c1cccnc1Nc1nc2cc(Cl)ccc2s1)N1CCNC(Cl)C1Cl (stereo not given) | 2 | 1 | 5 | 5 | 0 | 0 | 3 | 2 | 2 | 0
11 | O=C(c1cccnc1Nc1nc2ccc(Cl)cc2s1)N1CCNC(Cl)C1Cl (stereo not given) | 1 | 0 | 6 | 5 | 10 | 7 | 9 | 7 | 8 | 8
12 | Cc1cccc2sc(Nc3ncccc3C(=O)N3CCNC(Cl)C3Cl)nc12 (stereo not given) | 0 | 0 | 4 | 4 | 6 | 4 | 10 | 8 | 7 | 6
13 | Cc1ccc2sc(Nc3ncccc3C(=O)N3CCNC(Cl)C3Cl)nc2c1 (stereo not given) | 3 | 2 | 7 | 7 | 10 | 8 | 7 | 5 | 8 | 6
14 | Cc1ccc2nc(Nc3ncccc3C(=O)N3CCNC(Cl)C3Cl)sc2c1 (stereo not given) | 5 | 2 | 0 | 0 | 4 | 3 | 3 | 3 | 0 | 0
15 | COc1cccc2sc(Nc3ncccc3C(=O)N3CCNC(Cl)C3Cl)nc12 (stereo not given) | 4 | 3 | 9 | 8 | 6 | 6 | 4 | 0 | 8 | 7
16 | COc1ccc2nc(Nc3ncccc3C(=O)N3CCNC(Cl)C3Cl)sc2c1 (stereo not given) | 6 | 4 | 2 |  | 6 | 5 | 9 | 8 | 7 | 4
17 | O=C(c1cccnc1Nc1nc2ccc(Cl)cc2s1)N1CCN(CCO)CC1 | 1 | 0 | 9 | 7 | 9 | 8 | 10 | 6 | 10 | 7
18 | Cc1cccc2sc(Nc3ncccc3C(=O)N3CCN(CCO)CC3)nc12 | 0 | 0 | 10 | 7 | 5 | 4 | 7 | 3 | 7 | 6
19 | CC1(C)S[C@@H]2[C@H](NC(=O)[C@H](N)c3ccc(O)cc3)C(=O)N2[C@H]1C(=O)O [AMOXICILLIN] |  |  | 29 | 16 | 24 | 13 | 28 | 16 | 27 | 15
20 | C[C@@H]1[C@H](O)[C@@H](C)/C=C/C=C/C=C/C=C/C=C/C=C/C=C/[C@H](O[C@@H]2O[C@H](C)[C@@H](O)[C@H](N)[C@@H]2O)C[C@@H]2O[C@](O)(C[C@@H](O)C[C@@H](O)[C@H](O)CC[C@@H](O)C[C@@H](O)CC(=O)O[C@H]1C)C[C@H](O)[C@H]2C(=O)O [AMPHOTERICIN B] | 18 | 8 |  |  |  |  |  |  |  | 
21 | CC1(C)S[C@@H]2[C@H](NC(=O)[C@H](N)c3ccccc3)C(=O)N2[C@H]1C(=O)O [AMPICILLIN] |  |  | 30 | 17 | 28 | 15 | 30 | 18 | 31 | 18
22 | CC1(C)S[C@@H]2[C@H](NC(=O)Cc3ccccc3)C(=O)N2[C@H]1C(=O)O [PENICILLIN G] |  |  | 25 | 14 | 21 | 12 | 25 | 14 | 22 | 13
